For one series, the system named is explants of rat aortae. The experiment in a line: rat aortic ring model of angiogenesis (microvessel outgrowths). Format: cell-based, Sprague Dawley rats. The procedure:
Twenty four well tissue culture grade plates (Nalgene International, NY) were covered with […] of Matrigel (Becton-Dickinson, Bedford, Mass.) and allowed to gel for 30 min at 37° C., 5% CO2. Briefly, thoracic aortae were excised from 9 month-old Sprague Dawley rats. After removing the fibroadipose tissue, arteries were sectioned into 1 mm long cross sections, rinsed 5 times with EBM (Clonetics Corp.) containing 4% fetal bovine serum (FBS) and placed on the Matrigel coated wells. Artery rings were covered with an additional […] of Matrigel. After polymerization the Matrigel was covered with 1 mL of EBM (4% FBS) containing various doses of Z-VVL-CHO, OM99-2, P10-P4′statV, DAPT, or L-685,458 as indicated in the figure legends (the culture medium was changed every 3 days). Pictures were taken at day 4, 5 and 6 using a 4×objective. Microvessel outgrowth area was quantified using the Image Pro Plus software. Briefly, ring cultures were photographed using a digital video camera linked to an Olympus BX60 microscope. The outgrowth area was delineated and measured with the Image Pro Plus software by using a strategy of microvessel outgrowth detection based on difference in color intensities between the outgrowths, the Matrigel and the artery ring. The artery rings were manually selected and excluded from the area of measurement and the color intensity threshold was adjusted to selectively measure the area occupied by the microvessel outgrowths. Results were expressed as a percentage of the area occupied by microvessel outgrowths at day 4 in control condition.

The next series addresses BACE (Homo sapiens, UniProt P56817). The conditions noted are these: cited from earlier work.
Series [1] deals with human brain endothelial cells. The experiment in a line: viability of human brain endothelial cells (LDH activity in culture medium). It counts as cell-based. The conditions noted are these: 24 hours; for cellular toxicity / viability of human brain endothelial cells versus control: doses employed; for LDH activity in the culture medium, ANOVA main effect: various doses. How it is done: (§1) Primary cultures of human brain endothelial cells were plated at a density of 10^4 cells/[…] of EBM 4% in 96 wells culture plates and treated with various doses of γ-secretase and β-secretase inhibitors as indicated in the figure legends. Following 24 hours in culture, the EBM covering the cells was removed and assayed for Lacticodehydrogenase (LDH) activity using the cytotoxicity detection kit (Roche Diagnostic Corporation, Ind.). Cells were covered with […] of EBM 4% and cellular proliferation measured using the Quick cell proliferation assay kit (Biovision Research Products, Calif.).

Series [2] has as its system human brain endothelial cells. The experiment in a line: proliferation of human brain endothelial cells (Quick cell proliferation assay kit). The conditions noted are these: various doses, 24 hours. It counts as cell-based. How it is done:
as §1

Series [3] has as its system Human middle cerebral artery endothelial cells. The experiment in a line: capillary morphogenesis assay. Format: cell-based. The procedure:
Two hundred μl of Matrigel were placed into each well of a 24-well culture plate at 4° C. and allowed to polymerize by incubation at 37° C. Human middle cerebral artery endothelial cells (5×104) were seeded on the Matrigel in 1 ml of EBM containing 4% fetal calf serum. The cells were incubated at 37° C. for 20 hours in a humidified 5% CO2 atmosphere in the presence or absence of various doses of γ-secretase and β-secretase inhibitors as indicated in the figure legends. The experiments were performed in quadruplicate for each treatment condition. For each culture, 2 randomly chosen fields were photographed using a 4×objective. An experimenter unaware of the different treatments measured the total length of tube structures in each photograph using the Image Pro Plus software (Media Cybernetic, Inc., Md.). Capillary network lengths for the different treatment conditions were expressed as the percentage of capillary network lengths obtained in the control condition.

Series [4] relates to APP. The experiment in a line: α-sAPP secretion by human brain endothelial cells (immunoprecipitation, immunoblotting). It counts as cell-based. The conditions noted are these: 5 μM, 24 hours. How it is done: (§2) Confluent human brain endothelial cells (grown on 75 cm2 flasks with EBM 4% FBS medium) were treated for 24 hours with 5 μM of Z-VVL-CHO, 5 μM of L-685,458, 5 μM of OM99-2, 5 AM of DAPT or went untreated (control). Experiments were done in quadriplicate for each treatment condition. 6E10 (Signet), a mAb that recognizes residues 1-17 of human Aβ (Van Nostrand et al., Nature, 341, 546-549, 1989) was used to immunoprecipitate soluble APP generated following cleavage by α-secretase from cell culture medium. Immunoprecipitated material was resolved on a 4-20% gradient SDS-PAGE, transferred to PVDF membranes and immunodetected with mAb 22C11 (Roche Diagnostics) that recognizes the amino acids 66-81 of the N-terminal portion of APP (Hibich, C., J. Biol. Chem., 268, 26571-26577, 1993). Human brain endothelial cells were lysed on ice using MPERTM reagent (Pierce) supplemented with 1 mM PMSF and 1 mM of sodium-orthovanadate. Samples were sonicated and centrifuged at 10,000 g for 30 min at 4° C. The protein content of the lysates was determined using the BCA Protein assay kit (Pierce). Total lysates ([…] of protein/sample) were separated on a 4-20% gradient SDS-PAGE and transferred to PVDF membranes and immunoprobed with mAb 22C11 in order to detect full length APP and also immunoprobed with an Anti-APP-CT20 (Calbiochem) antibody which recognizes the amino acid residues 751-770 of the carboxyl terminal region of APP (Pinnix et al. 2001; J. Biol. Chem., 276, 481).
Background: In western blotting, separated proteins are transferred to a membrane and probed.

The test system of series [5] is APP. The experiment in a line: carboxyl-terminal APP fragments in human brain endothelial cell lysates (immunoblotting). Format: cell-based. The conditions noted are these: 5 μM, 24 hours. The procedure: as §2
Series [6] concerns the target γ-secretase. The conditions noted are these: cited from earlier work.
The subject of series [7] is aspartyl protease cathepsin. The conditions noted are these: cited from earlier work.
A further series deals with presenilin. The conditions noted are these: cited from earlier work.
In the next series the test system is Notch. The conditions noted are these: cited from earlier work.
Series [8] deals with γ-secretase. The conditions noted are these: 7PA2 cells; cited from earlier work.
Another series deals with Aβ. The conditions noted are these: cited from earlier work.

Where two headings read alike, the source gives them in different places. Numbered stars: 1 amine (or outer) side, 2 acyl side, 3 side chain; on linkers, the order of the positions; unused ones are H or OH. Square brackets hold non-standard residues; d marks the D form. Peptide text beside a SMILES is read from it. LeuΨ(S-CHOHCH2)Ala = CC(C)C[C@H](N[*:1])[C@@H](O)C[C@@H](C)C(=O)[*:2]; Sta = CC(C)C[C@H](N)[C@@H](O)CC(=O)O

For orientation: IC50 means the point on the concentration scale where inhibition reaches its midpoint.

Chain of BACE (P56817 46-501, species assumed): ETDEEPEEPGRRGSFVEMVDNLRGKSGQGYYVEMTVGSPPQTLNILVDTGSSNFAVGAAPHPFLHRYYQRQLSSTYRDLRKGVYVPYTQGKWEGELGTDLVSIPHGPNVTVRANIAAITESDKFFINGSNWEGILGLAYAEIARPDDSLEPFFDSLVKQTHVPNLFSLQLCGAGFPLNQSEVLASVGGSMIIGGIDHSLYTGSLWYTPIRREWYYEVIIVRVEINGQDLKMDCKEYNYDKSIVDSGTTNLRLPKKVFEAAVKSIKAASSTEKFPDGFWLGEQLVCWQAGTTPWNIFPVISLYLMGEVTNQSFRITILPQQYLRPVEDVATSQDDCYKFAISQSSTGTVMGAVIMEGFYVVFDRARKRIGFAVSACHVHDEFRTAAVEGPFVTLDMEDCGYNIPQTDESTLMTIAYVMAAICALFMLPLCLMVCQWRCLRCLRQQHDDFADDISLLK

In the case of “H-Lys-Thr-Glu-Glu-Ile-Ser-Glu-Val-Asn-Stat-Val-Ala-Glu-Phe-OH [P10-P4′statV, H-Lys-Thr-Glu-Glu-Ile-Ser-Glu-Val-Asn-Stat-Val-Ala-Glu-Phe-OH [Stat=(3S,4S)-Statine]]”, the “sprouting of microvessel outgrowths, overall / dose dependence” value in the series on explants of rat aortae (day 4, 5 and 6) is “dose dependently and potently inhibited”. The IC50 on BACE is 30 nM.
On to `CC(C)C[C@H](NC(=O)[C@H](CC(N)=O)NC(=O)[C@@H](NC(=O)[C@@H](N)CCC(=O)O)C(C)C)[C@@H](O)C[C@@H](C)C(=O)N[C@@H](C)C(=O)N[C@@H](CCC(=O)O)C(=O)N[C@@H](Cc1ccccc1)C(=O)O` [OM99-2, Glu-Val-Asn-Leu-ψ-Ala-Ala-Glu-Phe [ψ denotes replacement of CONH by (S)—CH(OH)CH2]] (H-EVN[LeuΨ(S-CHOHCH2)Ala]AEF-OH), for which, in [1], the “cellular toxicity / viability of human brain endothelial cells versus control” value is given as “without affecting their viability” and the “LDH activity in the culture medium, ANOVA main effect” value is on record as “significant main effect”.
Take `CC(C)CC(NC(=O)C(Cc1ccccc1)CC(O)C(Cc1ccccc1)NC(=O)OC(C)(C)C)C(=O)NC(Cc1ccccc1)C(N)=O` [L-685,458, {1S-Benzyl-4R-[1-(1S-carbamoyl-2-phenethylcarbamoyl)-1S-3-methylbutylcarba-moyl]-2R-hydroxy-5-phenyl-pentyl}carbamic acid tert-butyl ester]: the “cellular toxicity / viability of human brain endothelial cells versus control” value in [1] was “without inducing cellular toxicity”. Further, the “LDH activity in the culture medium, ANOVA main effect” value in [1] was “no main effect”. The “proliferation of human brain endothelial cells, dose dependence” value in series [2] is given as “dose dependently inhibited”. Besides, the “capillary network length / capillary morphogenesis versus control” value in [3] (5 μM, 20 hours) is reported as “potent angiogenic effect”. The capillary morphogenesis result in series [3] (low dose) was “stimulated capillary morphogenesis”. Moreover, the “secretion of α-sAPP” value in the series on APP [4] was “not”. Further, the “accumulation of carboxyl-terminal APP fragments (APP CTF)” value was “stimulates” with APP [5] and “promoted the accumulation” with APP [5] (listed as L-685-485). For the same compound, the “area covered by microvessel outgrowths versus control” value in the series with explants of rat aortae (1 μM) and in the series on explants of rat aortae (5 μM) was “inhibited” in each case. The IC50 on γ-secretase [6] (read-out: Ab40 IC50) is 48 nM; at γ-secretase [6] (read-out: Ab42 IC50), 67 nM; on γ-secretase [6] (read-out: Abtotal IC50), 17 nM. In series [7], the “selectivity for γ-secretase than for the aspartyl protease cathepsin” value is reported as “over a hundred-fold greater”. Moreover, in the series on presenilin, the binding to presenilin entry is recorded as “binds to presenilin”. For the same compound, the “Notch intracellular domain production” value in the series with Notch is listed as “blocks”.
Consider `COC(=O)C(NC(=O)C(C)NC(=O)Cc1cc(F)cc(F)c1)c1ccccc1` [DAPM, N-[N-3,5-difluorophenacetyl]-L-alanyl-S-phenylglycine methyl ester], for which the “cellular toxicity / viability of human brain endothelial cells versus control” value in series [1] is listed as “without inducing cellular toxicity”. In addition, in series [2], the “proliferation of human brain endothelial cells, dose dependence” value was “dose dependently inhibited”. Also, at γ-secretase [8], the IC50 was roughly 10 nM. Moreover, in the series on Aβ, the “early Aβ oligomerization (Aβ dimer and trimer formation)” value is reported as “prevents”.
With `CC(C)C[C@H](NC(=O)[C@H](CC(N)=O)NC(=O)[C@@H](NC(=O)[C@@H](N)CCC(=O)O)C(C)C)[C@@H](O)CC(=O)N[C@H](C(=O)N[C@@H](C)C(=O)N[C@@H](CCC(=O)O)C(=O)N[C@@H](Cc1ccccc1)C(N)=O)C(C)C` [GL189, H-Glu-Val-Asn-Statine-Val-Ala-Glu-Phe-NH] (H-EVN[Sta]VAEF-NH2), the “cellular toxicity / viability of human brain endothelial cells versus control” value in series [1] is “without affecting their viability”.

These data come from patent publication US20040229816A1, “Anti-angiogenic and anti-tumoral properties of beta and gamma secretase inhibitors” (priority 2003, published 2004).
